Laboratory results as given in paper PMC5791972 (PLoS ONE, 2018).
Values joined by “and” are separate entries in the source; they are usually repeats but may differ in a detail not shown here. Equal values may be shown once. No end group written: not given here.

Tests used:
tyrosine hydroxylase = target: T1, tyrosine hydroxylase (Rattus norvegicus, UniProt P04177); test: enzyme assay; type: biochemical
T1 construct: rat striatum; from tissue; host or cells: rat striatum

GABA transaminase = target: T2, GABA transaminase (Rattus norvegicus, UniProt P50554); test: enzyme assay; type: biochemical
T2 construct: rat brain; from tissue; host or cells: rat brain
T2 sequence (P50554 28-500): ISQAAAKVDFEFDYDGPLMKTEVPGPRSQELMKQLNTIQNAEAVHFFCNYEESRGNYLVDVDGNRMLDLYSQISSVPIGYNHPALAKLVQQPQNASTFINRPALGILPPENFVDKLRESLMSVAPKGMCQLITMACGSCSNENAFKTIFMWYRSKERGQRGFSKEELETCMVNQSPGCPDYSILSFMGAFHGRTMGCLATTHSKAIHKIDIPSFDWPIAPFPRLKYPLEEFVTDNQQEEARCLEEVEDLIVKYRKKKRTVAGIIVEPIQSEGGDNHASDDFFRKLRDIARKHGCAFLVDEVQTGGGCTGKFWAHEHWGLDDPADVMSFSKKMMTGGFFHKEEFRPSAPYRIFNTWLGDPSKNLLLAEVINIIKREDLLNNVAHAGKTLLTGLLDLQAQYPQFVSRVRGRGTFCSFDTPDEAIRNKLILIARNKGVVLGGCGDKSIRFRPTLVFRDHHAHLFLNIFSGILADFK

A3 (h) = target: T3, A3 (h) (Homo sapiens, UniProt P0DMS8); type: binding
T3 construct: host or cells: HEK-293 cells
T3 sequence (P0DMS8 1-318): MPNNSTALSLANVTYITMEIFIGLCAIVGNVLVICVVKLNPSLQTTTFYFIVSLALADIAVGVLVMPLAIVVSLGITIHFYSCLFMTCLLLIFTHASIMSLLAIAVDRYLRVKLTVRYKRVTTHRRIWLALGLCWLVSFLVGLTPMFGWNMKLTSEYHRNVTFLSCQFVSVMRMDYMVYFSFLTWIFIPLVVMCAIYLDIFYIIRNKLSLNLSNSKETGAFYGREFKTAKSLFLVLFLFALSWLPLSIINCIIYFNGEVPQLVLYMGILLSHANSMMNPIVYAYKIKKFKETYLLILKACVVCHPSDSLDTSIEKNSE

β1 (h) = target: T4, β1 (h) (Homo sapiens, UniProt P08588); type: binding
T4 construct: host or cells: HEK-293 cells
T4 sequence (P08588 whole entry): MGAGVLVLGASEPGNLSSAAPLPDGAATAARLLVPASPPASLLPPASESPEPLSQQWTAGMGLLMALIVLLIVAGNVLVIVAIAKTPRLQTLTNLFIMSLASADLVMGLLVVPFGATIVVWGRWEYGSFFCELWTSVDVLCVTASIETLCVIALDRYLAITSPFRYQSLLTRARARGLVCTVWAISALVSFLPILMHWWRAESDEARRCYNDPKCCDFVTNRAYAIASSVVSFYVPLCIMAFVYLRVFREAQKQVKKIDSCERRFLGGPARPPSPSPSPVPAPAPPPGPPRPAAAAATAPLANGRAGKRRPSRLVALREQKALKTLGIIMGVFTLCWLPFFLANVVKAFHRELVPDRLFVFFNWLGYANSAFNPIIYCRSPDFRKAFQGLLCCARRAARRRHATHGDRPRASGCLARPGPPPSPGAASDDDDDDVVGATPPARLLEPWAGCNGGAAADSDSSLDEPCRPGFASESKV

α2C (h) = target: T5, α2C (h) (Homo sapiens, UniProt P18825); type: binding
T5 construct: host or cells: CHO cells
T5 sequence (P18825 1-462): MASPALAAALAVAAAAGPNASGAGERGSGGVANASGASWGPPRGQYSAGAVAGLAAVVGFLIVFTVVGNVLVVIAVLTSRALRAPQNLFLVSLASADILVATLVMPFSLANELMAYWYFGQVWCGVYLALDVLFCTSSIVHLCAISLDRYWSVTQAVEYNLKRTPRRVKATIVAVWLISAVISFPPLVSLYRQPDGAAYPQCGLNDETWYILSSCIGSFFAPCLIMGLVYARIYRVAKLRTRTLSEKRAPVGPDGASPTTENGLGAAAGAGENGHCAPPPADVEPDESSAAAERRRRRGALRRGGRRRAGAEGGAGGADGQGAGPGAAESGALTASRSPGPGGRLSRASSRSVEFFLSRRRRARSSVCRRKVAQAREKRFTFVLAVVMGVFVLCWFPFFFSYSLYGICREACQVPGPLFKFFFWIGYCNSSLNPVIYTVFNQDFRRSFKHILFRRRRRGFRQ

[1] = target: T6, choline transporter (CHT1) (h) (Homo sapiens, UniProt Q9GZV3); type: binding
T6 construct: host or cells: CHO cells
T6 sequence (Q9GZV3 1-580): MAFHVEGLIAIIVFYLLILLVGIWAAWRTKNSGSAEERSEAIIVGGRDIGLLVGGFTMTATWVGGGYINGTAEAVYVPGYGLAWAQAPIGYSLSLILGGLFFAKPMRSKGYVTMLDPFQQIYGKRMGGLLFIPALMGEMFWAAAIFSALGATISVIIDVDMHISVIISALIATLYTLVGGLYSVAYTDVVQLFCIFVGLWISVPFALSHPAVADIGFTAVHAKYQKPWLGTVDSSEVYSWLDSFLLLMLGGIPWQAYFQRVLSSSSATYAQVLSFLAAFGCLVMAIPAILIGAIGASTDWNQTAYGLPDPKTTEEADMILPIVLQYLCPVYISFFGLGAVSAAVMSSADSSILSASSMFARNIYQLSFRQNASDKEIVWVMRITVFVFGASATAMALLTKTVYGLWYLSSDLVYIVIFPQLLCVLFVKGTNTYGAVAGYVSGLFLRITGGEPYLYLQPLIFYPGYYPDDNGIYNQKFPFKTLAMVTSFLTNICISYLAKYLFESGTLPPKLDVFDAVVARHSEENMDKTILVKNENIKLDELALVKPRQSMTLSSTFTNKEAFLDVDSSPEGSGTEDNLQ

AR (h) = target: T7, AR (h) (Homo sapiens, UniProt P10275, T878A); type: binding
T7 construct: AR (h) LNCaP cells [3H]methyltrienolone; host or cells: LNCaP cells (cytosol)
T7 sequence (P10275 1-920 T878A): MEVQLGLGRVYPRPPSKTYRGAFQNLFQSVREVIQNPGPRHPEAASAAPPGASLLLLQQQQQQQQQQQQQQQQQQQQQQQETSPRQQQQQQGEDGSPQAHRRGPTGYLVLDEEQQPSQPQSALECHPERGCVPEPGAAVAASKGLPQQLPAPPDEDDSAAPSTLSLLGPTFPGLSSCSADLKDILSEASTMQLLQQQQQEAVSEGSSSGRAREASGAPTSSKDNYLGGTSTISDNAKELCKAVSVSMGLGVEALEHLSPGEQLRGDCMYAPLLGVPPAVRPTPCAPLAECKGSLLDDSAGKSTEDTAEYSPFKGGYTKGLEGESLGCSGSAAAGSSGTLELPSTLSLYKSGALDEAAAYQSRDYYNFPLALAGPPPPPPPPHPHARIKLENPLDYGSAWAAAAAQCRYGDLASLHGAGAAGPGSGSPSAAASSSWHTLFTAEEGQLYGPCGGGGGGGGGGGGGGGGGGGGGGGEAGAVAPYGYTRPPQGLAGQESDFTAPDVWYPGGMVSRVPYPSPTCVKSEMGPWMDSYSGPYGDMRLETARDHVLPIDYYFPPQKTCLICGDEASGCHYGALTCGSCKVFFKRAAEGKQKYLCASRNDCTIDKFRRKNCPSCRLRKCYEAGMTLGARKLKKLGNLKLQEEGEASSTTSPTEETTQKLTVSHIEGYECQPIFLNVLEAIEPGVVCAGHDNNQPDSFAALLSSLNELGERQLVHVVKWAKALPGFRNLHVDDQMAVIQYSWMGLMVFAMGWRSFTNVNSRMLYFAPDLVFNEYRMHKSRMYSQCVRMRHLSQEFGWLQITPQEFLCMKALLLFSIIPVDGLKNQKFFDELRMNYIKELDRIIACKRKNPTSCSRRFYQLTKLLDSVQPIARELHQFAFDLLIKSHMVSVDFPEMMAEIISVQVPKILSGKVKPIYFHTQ

rolipram = type: binding, mouse
α2A (h) = target: T8, α2A (h) (Homo sapiens, UniProt P08913); type: binding
T8 construct: host or cells: CHO cells
T8 sequence (P08913 1-465): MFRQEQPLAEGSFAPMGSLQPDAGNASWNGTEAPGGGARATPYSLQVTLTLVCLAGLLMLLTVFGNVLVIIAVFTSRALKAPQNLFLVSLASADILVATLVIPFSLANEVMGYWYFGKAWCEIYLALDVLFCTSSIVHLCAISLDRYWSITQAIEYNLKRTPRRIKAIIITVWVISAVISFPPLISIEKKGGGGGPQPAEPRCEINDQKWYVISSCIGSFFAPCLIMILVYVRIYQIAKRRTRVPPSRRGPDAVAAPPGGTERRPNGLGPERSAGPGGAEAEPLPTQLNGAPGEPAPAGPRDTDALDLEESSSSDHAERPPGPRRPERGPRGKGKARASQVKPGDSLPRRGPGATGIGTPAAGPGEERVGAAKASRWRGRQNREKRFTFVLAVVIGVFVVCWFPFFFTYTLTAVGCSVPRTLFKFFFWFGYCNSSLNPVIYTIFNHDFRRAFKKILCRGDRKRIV

PDE6 (non-selective) = target: T9, PDE6 (non-selective) (Bos taurus, UniProt P11541+P23439); test: enzyme assay; type: biochemical, bovine
T9 construct: PDE6 bovine [3H]cGMP; tissue Cerep (contract assay); host or cells: bovine retina
T9 sequence (P11541 2-856 limits assumed): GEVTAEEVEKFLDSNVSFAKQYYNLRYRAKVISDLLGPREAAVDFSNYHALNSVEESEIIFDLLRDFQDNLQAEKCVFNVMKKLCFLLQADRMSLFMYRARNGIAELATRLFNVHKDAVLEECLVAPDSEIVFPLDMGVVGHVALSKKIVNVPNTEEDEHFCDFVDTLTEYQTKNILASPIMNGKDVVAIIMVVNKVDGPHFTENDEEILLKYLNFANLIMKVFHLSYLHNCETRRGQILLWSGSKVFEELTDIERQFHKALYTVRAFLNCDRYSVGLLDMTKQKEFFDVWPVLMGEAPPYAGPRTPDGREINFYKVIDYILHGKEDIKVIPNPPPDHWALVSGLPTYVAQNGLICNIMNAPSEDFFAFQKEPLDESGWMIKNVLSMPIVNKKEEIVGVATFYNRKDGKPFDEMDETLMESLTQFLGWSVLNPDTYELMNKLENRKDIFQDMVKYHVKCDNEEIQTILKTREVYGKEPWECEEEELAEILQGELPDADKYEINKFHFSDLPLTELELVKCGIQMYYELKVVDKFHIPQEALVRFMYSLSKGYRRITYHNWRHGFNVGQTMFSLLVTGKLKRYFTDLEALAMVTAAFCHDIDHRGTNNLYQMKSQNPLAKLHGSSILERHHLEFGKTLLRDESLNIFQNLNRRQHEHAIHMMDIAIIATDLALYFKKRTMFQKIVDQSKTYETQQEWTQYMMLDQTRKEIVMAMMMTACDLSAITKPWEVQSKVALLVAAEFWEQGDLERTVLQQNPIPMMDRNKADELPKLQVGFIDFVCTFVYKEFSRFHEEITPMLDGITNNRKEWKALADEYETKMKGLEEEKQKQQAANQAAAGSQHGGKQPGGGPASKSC
T9 sequence (P23439 2-850 limits assumed): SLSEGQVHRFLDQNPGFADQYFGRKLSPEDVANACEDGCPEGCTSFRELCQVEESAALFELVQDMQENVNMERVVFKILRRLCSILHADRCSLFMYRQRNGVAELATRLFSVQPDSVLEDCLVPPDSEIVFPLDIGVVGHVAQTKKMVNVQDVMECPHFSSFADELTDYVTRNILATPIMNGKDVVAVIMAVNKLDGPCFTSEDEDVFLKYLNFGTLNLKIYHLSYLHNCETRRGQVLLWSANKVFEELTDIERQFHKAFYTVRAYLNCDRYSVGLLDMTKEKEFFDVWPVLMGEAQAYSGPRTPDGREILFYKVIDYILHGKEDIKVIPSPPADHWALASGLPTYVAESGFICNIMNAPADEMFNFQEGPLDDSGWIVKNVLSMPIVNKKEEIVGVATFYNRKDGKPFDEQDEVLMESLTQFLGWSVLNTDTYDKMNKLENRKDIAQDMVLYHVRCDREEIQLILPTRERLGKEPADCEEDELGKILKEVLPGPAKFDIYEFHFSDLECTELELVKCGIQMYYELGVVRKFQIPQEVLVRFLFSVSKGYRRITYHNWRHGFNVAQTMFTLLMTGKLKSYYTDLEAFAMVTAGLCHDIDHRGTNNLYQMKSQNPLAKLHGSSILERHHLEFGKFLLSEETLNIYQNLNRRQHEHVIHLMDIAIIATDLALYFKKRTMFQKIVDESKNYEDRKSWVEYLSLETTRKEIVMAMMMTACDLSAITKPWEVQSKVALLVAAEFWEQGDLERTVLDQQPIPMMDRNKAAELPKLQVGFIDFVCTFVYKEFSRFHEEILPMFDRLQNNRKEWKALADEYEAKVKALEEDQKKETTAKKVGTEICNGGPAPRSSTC

CaMK2α (h) = CaMK2α (h) (Homo sapiens, UniProt Q9UQM7); test: enzyme assay; type: biochemical
[2] = target: T10, phosphatase 1B (h) (PTP1B) (Homo sapiens, UniProt P18031); test: enzyme assay; type: biochemical
T10 construct: host or cells: E. coli
T10 sequence (P18031 1-435): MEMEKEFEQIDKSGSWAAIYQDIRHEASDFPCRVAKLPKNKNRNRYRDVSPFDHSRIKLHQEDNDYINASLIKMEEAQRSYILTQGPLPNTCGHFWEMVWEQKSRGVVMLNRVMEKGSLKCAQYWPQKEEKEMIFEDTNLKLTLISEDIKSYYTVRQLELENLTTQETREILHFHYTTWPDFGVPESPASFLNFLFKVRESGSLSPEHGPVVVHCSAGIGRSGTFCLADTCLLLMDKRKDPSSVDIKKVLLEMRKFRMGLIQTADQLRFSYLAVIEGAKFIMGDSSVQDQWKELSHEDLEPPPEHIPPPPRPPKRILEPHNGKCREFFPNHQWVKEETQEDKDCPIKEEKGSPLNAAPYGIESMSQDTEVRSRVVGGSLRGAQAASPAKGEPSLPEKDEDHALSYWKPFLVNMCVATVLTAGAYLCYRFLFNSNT

T1 sequence (P04177 whole entry): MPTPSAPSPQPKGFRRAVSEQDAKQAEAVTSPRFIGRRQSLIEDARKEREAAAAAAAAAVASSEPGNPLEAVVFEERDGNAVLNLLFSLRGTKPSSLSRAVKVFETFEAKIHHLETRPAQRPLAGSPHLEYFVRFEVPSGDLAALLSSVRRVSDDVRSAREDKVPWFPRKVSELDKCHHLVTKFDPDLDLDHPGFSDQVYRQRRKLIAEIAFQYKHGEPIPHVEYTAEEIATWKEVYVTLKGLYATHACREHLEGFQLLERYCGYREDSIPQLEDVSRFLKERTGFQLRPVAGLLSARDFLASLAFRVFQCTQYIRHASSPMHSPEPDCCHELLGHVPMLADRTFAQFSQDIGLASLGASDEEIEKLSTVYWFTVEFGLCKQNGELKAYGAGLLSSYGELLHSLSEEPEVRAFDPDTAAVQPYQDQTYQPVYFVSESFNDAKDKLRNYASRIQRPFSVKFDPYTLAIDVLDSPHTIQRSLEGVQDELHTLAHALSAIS

N[C@@H](Cc1ccc(O)c(I)c1)C(=O)O [3-iodo L-tyrosine, reference compound]
IC50 (tyrosine hydroxylase): 610 nM | nH (tyrosine hydroxylase): 1.0

NOCC(=O)O [AoAA, reference compound]
IC50 (GABA transaminase): 130 nM | nH (GABA transaminase): 1.7

CNC(=O)[C@H]1O[C@@H](n2cnc3c(NCc4cccc(I)c4)ncnc32)[C@H](O)[C@@H]1O [IB-MECA, reference compound]
nH (A3 (h)): 0.8

CC(C)NCC(O)COc1ccc(CC(N)=O)cc1 (stereo not shown) [atenolol, reference compound]
nH (β1 (h)): 1.0

CNC[C@H](O)c1ccc(O)c(O)c1 [epinephrine, reference compound]
nH (α2C (h)): 1.1

C[N+]1(C)CCOC(O)(c2ccc(-c3ccc(C4(O)C[N+](C)(C)CCO4)cc3)cc2)C1 (stereo not shown) [hemicholinium-3, reference compound]
Ki [1]: 3.6 nM | nH [1]: 0.7

C[C@@H]1CC2=CC(=O)CC[C@@H]2[C@H]2CC[C@@]3(C)[C@@H](CC[C@]3(C)O)[C@@H]21 [mibolerone, reference compound]
nH (AR (h)): 1.1 and 1.0

COc1ccc(C2CNC(=O)C2)cc1OC1CCCC1 (stereo not shown) [rolipram, reference compound]
IC50 (rolipram): 0.71 nM | Ki (rolipram): 0.36 nM

COC(=O)[C@@H]1[C@H]2C[C@H]3c4[nH]c5ccccc5c4CCN3C[C@@H]2CC[C@@H]1O [yohimbine, reference compound]
nH (α2A (h)): 1.1

CCCOc1ccccc1-c1nc2nn[nH]c2c(=O)[nH]1 [zaprinast, reference compound]
IC50 (PDE6 (non-selective)): 170 nM | nH (PDE6 (non-selective)): 0.7

KKALRRQEAVDAL [AIP, reference compound]
IC50 (CaMK2α (h)): 81 nM | nH (CaMK2α (h)): 1.0

ammonium molybdate [reference compound]
IC50 [2]: 540 nM | nH [2]: 2.9
